Measurements taken from patent publication US20090175882A1, “METHODS AND COMPOSITIONS FOR TREATING HYPERALGESIA” (IRM LLC, priority 2006, published 2009).
“Also recorded” adds a separate entry of the source. Blank lines part the entries; values can stand above or below the molecule they belong to.

Assays:
mouse TRPA1 [1] = molecular target: T1, mouse TRPA1 (Mus musculus, UniProt Q8BLA8); assay: FLIPR calcium-influx assay, block of cinnamaldehyde activation, CHO cells; assay type: cell-based
T1 construct: expressed in transfected cells; host or cells: CHO cells (tetracycline-induced for PatchXpress; mTRPA1-pcDNA5 named for the transient labelling experiment)

mouse TRPA1 [2] = molecular target: T1, mouse TRPA1; assay: Whole-cell electrophysiology of TRPA1-expressing CHO cells (pressure, hyperosmolarity, cold); assay type: cell-based; conditions: for block of TRPA1 currents in response to hyperosmolarity: bath application, 2 min stimulus
Source text: We tested if TRPA1 is activated by mechanical forces. The electrophysiological behavior of thermoTRP-expressing Chinese Hamster Ovary (CHO) cells was investigated with two different assays of mechanical stress—pressure application using the recording pipette and changes in external osmolarity.
(§1) Mechanosensory neurons are often classified as high- or low-threshold, characterizing responses to pain and touch, respectively. We tested the mechanical threshold of TRPA1 by applying a wide range of negative pipette pressures (FIG. 1C). TRPA1-expressing CHO cells are activated at −90 mmHg or higher, consistent with native high-threshold mechanical receptors involved in sensing pain (Cho et al., J Neurosci 22:1238, 2002). […] Gadolinium (Gd^3+) is considered a blocker of native mechanically-gated ion channels in animal tissues (Martinac et al., Physiol Rev 81:685, 2001). […] FM1-43 is a styryl dye that specifically labels sensory cells by entering through open transduction channels. […] Furthermore, it was observed that 10 μM of FM1 -43 was able to block cinnamaldehyde-induced currents in TRPA1-expressing CHO cells (n=8).
(§2) To ensure that the mechanical response we observe is not an artifact of heterologous expression system, we tested if native TRPA1-expressing neurons also respond to such stimuli. 5/6 cinnamaldehyde-sensitive (presumptive TRPA1-expressing) DRG neurons responded to an application of −200 mmHg of suction, while 0/21 cinnamaldehyde insensitive neurons responded (16 of 21 were capsaicin-sensitive) (FIG. 2B). Millimolar camphor was recently reported to inhibit basal currents and cold or agonist-activation of TRPA1.
Mammalian cell electrophysiology: ThermoTRP-expressing CHO cells (rat TRPV1, rat TRPV2, mouse TRPV3, rat TRPV4, mouse TRPM8, and mouse TRPA1), control CHO cells, and cultured rat DRG neurons were prepared as described in Story et al., Cell 112:819, 2003; and Bandell et al., Neuron 41:849, 2004. Electrophysiological recordings were performed as described in Bandell et al., Neuron 41:849, 2004. Briefly, CHO cells were clamped at −60 mV and 0.8 second ramps from −80 mV to +80 mV were run every 4 seconds. Currents from DRG neurons were recorded at −60 mV and for their current-voltage curve, 300 ms voltage step at +20 mV was used 40 ms before 800 ms ramp from -80 mV to +80 mV to minimize contamination of voltage gated Na^+ or Ca^2+ current. The pipette solution for temperature and hyperosmotic experiments consisted of (in mM) 140 CsCl, 5 EGTA, 10 HEPES, 2 MgATP, 0.2 NaGTP, titrated to pH 7.4 with CsOH. The base external solution for these experiments consisted of (in mM) 140 NaCl, 5KCl, 10 HEPES, 2CaCl2, 1MgCl2, titrated to pH 7.4 with NaOH. Mannitol was used to adjust osmolarity for hypertonic solutions. For mouse TRPV3 and rat TRPV2, external calcium was replaced with 5 mM EGTA. Gluconate was substituted for chloride in (±)-pressure and hypotonic experiments to eliminate the potential for endogenous swelling-activated chloride currents. For these experiments, pipette solution (295 mOsm) consisted of (in mM) 125 Cs-gluconate, 15CsCl, 5 EGTA, 10 HEPES, 2 MgATP, 0.2NaGTP, titrated to pH 7.4 with CsOH. The external solution consisted of (in mM) 90 Na-gluconate, 10 NaCl, 5 K-gluconate, 10 HEPES, 2 CaCl2, 1 MgCl2, titrated to pH 7.4 with NaOH. Osmolarity was adjusted with mannitol to 220 mOsm (hypotonic) or 298 mOsm 15 (isotonic). (±)-Pressure was hydrostatically delivered by the recording pipette using syringe pumping (Hamill et al., Annu Rev Physiol 59:621, 1997) and monitored through Pressure Monitor (World Precision Instruments). Warner temperature controller (TC-324B and CL-100) was used for the heating or cooling the perfused bath solutions. […] The number of cells (n) tested with -100 mmHg to −300 mmHg, ˜+100 mmHg, 450 mOsm, and 220 mOsm for each cell type, respectively, are: CHO cells, n=7, 14, 5, 12; TRPV1, n=6, 5, 7, 5; TRPV2, n=4, 5, 3, 5; TRPV3, n=3, 2, 3, 0; TRPM8, n=12, 4, 10, 0. […]

cultured rat DRG neurons = assay: Current response of cultured DRG neurons to negative pressure; assay type: cell-based; conditions: 2 mM camphor, −150 mmHg
Source text: as §2
Mammalian cell electrophysiology: ThermoTRP-expressing CHO cells (rat TRPV1, rat TRPV2, mouse TRPV3, rat TRPV4, mouse TRPM8, and mouse TRPA1), control CHO cells, and cultured rat DRG neurons were prepared as described in Story et al., Cell 112:819, 2003; and Bandell et al., Neuron 41:849, 2004. Electrophysiological recordings were performed as described in Bandell et al., Neuron 41:849, 2004. […] Currents from DRG neurons were recorded at −60 mV and for their current-voltage curve, 300 ms voltage step at +20 mV was used 40 ms before 800 ms ramp from -80 mV to +80 mV to minimize contamination of voltage gated Na^+ or Ca^2+ current. […] (±)-Pressure was hydrostatically delivered by the recording pipette using syringe pumping (Hamill et al., Annu Rev Physiol 59:621, 1997) and monitored through Pressure Monitor (World Precision Instruments). […]

[3] = tested on: CFA-induced mechanical hyperalgesia; assay: CFA-induced mechanical hyperalgesia (Von Frey threshold); assay type: in vivo; conditions: injected into hindpaw 24 hours after CFA, mice
[4] = tested on: BK-induced nociceptive mechanical behaviours; assay: Bradykinin-induced mechanical hyperalgesia (Von Frey threshold); assay type: in vivo; conditions: short term hyperalgesia model, 1 mM coinjected, mice
[5] = tested on: CFA-induced heat hyperalgesia; assay: CFA-induced heat hyperalgesia; assay type: in vivo; conditions: mice
[6] = tested on: bradykinin (BK)-induced heat hyperalgesia; assay: Bradykinin-induced heat hyperalgesia; assay type: in vivo; conditions: mice
[7] = tested on: TRPV1, TRPV2, TRPV3, TRPV4, or TRPM8; assay: Effect on other thermoTRPs (summary statement); assay type: cell-based
Source text: TRPA1 inhibitors that can be employed in the practice of the present invention include compounds that interferes with the expression, modification, regulation or activation of TRPA1, or compounds that down-regulates one or more of the normal biological activities of TRPA1 (e.g., its ion channel). […] Various TRPA1-specific antagonists can be used in the instant invention. Some of these TRPA1-specific inhibitors are identified by the present inventors, as described in the Examples below. These compounds can be obtained commercially or are otherwise described in the art. One such compound is Compound 18, (Z)-4-(4-chlorophynyl)-3-methylbut-3-en-2-oxime. This compound can be obtained commercially from Maybridge (Cornwall, UK). Another example is Compound 40, N,N′-Bis-(2-hydroxybenzyl)-2,5-diamino-2,5-dimethylhexane, which has been described in U.S. Pat. No. 4,129,556. […] Thus, these two compounds can be readily used to treat or alleviate mechanical hyperalgesia as described in more detail below.

TRPA1 [8] = molecular target: T2, TRPA1 (Homo sapiens, UniProt O75762); assay: TRPA1 block, test not specified; conditions: summary statement
Target sequence in this assay (O75762 whole entry, species assumed): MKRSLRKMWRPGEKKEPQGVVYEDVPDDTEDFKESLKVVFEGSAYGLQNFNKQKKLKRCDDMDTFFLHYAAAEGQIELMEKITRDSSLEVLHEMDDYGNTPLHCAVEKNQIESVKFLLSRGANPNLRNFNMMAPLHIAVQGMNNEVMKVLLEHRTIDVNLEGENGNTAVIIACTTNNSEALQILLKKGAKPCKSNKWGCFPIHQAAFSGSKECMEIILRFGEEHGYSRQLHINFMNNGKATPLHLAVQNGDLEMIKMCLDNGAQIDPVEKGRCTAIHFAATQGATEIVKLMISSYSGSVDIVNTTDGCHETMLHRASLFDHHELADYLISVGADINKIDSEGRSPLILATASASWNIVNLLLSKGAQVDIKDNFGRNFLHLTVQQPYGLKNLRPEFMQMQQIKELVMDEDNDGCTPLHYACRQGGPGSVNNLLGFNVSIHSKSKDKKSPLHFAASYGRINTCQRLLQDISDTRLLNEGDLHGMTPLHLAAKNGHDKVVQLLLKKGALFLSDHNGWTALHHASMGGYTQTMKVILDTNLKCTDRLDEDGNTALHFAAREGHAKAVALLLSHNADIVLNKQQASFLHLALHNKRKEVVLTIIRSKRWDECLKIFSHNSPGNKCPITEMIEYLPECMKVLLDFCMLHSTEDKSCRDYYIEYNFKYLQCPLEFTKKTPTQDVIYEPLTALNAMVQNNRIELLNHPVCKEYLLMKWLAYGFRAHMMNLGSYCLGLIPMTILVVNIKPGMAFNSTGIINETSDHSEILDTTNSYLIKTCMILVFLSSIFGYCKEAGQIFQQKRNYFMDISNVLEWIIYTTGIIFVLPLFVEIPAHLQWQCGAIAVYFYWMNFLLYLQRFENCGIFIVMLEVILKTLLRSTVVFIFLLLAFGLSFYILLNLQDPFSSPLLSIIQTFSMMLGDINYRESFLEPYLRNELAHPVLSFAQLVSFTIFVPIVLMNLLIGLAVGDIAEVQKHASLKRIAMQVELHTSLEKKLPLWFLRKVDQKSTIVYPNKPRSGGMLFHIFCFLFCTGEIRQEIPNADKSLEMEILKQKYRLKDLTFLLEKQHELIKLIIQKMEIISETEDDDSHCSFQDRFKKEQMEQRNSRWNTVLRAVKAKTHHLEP

mTRPA1 = molecular target: T3, mTRPA1 (Mus musculus, UniProt Q8BLA8); assay: PatchXpress whole cell patch clamp, cinnamaldehyde-elicited current, CHO cells; assay type: cell-based
T3 construct: expressed in transfected cells; host or cells: CHO cells (tetracycline-induced for PatchXpress; mTRPA1-pcDNA5 named for the transient labelling experiment)
Source text: as §1
FM1-43 experiments: The FM1-43 labeling of CHO cells transfected with mTRPA1 was performed as described (Meyers et al., J Neurosci 23:4054, 2003). Briefly, CHO cells were transfected using Fugene (Roche) with mTRPA1-pcDNA5. For mock transfection CHO cells were treated with Fugene, but without any plasmid DNA. 24 hrs after transfection the cells were incubated for 5 min with 200 μM cinnamaldehyde in physiological buffer (consisted of (in mM) 130 NaCl, 3 KCl, 2 MgCl2, 2 CaCl2, 10 HEPES, 10 glucose) at room temperature, followed by 3 min with 10 μM of FM1-43. The cells were then washed thoroughly and imaged. mTRPA1 and hTRPA1-expressing CHO cells were tested in whole cell patch clamp configuration using the PatchXpress (Axon Instruments) for the effect of the FM143 dye on TRPA1 activation. Cells were plated the day before testing and induced with 0.5 μg/ml tetracycline as previously described in Story et al., Cell 112:819, 2003. Immediately prior to testing, cells were trypsinized and resuspended in calcium-free DMEM media (Invitrogen). […] Holding currents at −80 mV were used for quantitative analysis of TRPA1 activation and inhibition. […]

TRPA1 [9] = molecular target: T2, TRPA1; assay: as above; assay type: cell-based; parameters: expressed in transfected cells; host or cells: CHO cell line; conditions: 10 μM FM1-43 with 100 μM cinnamaldehyde, −80 mV
Method: FM1-43 experiments: The FM1-43 labeling of CHO cells transfected with mTRPA1 was performed as described (Meyers et al., J Neurosci 23:4054, 2003). Briefly, CHO cells were transfected using Fugene (Roche) with mTRPA1-pcDNA5. For mock transfection CHO cells were treated with Fugene, but without any plasmid DNA. 24 hrs after transfection the cells were incubated for 5 min with 200 μM cinnamaldehyde in physiological buffer (consisted of (in mM) 130 NaCl, 3 KCl, 2 MgCl2, 2 CaCl2, 10 HEPES, 10 glucose) at room temperature, followed by 3 min with 10 μM of FM1-43. The cells were then washed thoroughly and imaged. mTRPA1 and hTRPA1-expressing CHO cells were tested in whole cell patch clamp configuration using the PatchXpress (Axon Instruments) for the effect of the FM143 dye on TRPA1 activation. Cells were plated the day before testing and induced with 0.5 μg/ml tetracycline as previously described in Story et al., Cell 112:819, 2003. Immediately prior to testing, cells were trypsinized and resuspended in calcium-free DMEM media (Invitrogen). Recordings were performed in extracellular solution containing (in mM) 2.67 KCl, 1.47 KH2PO4, 0.5 MgCl2, 138 NaCl, 8 Na2HPO4, 5.6 glucose. The intracellular solution contained (in mM) 140 KCl, 10 HEPES, 20 glucose, 10 HEDTA and 1 μM buffered free Calcium. Holding currents at −80 mV were used for quantitative analysis of TRPA1 activation and inhibition. […]
Target sequence in this assay (O75762 whole entry): as the sequence (O75762 whole entry, species assumed) above

T1 sequence (Q8BLA8 whole entry): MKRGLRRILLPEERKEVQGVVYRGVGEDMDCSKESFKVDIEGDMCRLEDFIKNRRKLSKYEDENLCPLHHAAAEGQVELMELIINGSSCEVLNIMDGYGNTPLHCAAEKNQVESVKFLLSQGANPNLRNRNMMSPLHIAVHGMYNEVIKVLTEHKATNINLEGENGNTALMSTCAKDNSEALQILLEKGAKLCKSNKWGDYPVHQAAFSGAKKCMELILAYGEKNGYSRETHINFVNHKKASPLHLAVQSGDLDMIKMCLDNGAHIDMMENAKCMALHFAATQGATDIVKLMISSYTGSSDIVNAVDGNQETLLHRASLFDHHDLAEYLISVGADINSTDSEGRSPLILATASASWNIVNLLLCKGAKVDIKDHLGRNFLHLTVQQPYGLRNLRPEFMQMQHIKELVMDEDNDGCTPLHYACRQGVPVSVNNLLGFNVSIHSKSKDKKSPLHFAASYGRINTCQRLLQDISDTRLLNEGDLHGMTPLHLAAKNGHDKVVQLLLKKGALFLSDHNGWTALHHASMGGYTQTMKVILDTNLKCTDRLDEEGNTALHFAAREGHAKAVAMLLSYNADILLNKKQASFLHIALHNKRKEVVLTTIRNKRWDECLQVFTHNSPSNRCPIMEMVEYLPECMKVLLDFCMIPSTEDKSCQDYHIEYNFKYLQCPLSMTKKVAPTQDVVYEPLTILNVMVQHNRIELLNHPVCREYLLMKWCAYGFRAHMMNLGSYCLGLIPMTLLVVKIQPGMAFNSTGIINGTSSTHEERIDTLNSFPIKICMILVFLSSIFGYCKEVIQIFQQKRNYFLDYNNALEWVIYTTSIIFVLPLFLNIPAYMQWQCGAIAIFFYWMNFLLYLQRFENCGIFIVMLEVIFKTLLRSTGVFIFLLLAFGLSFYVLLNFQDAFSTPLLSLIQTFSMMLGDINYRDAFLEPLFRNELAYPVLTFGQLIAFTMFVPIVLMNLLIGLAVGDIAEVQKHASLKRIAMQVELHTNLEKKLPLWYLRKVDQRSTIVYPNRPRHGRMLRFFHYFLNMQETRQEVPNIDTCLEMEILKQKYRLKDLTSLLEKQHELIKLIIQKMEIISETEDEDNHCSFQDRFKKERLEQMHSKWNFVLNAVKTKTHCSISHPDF
T3 sequence (Q8BLA8 whole entry): as above

Compound: O=CC=Cc1ccccc1 [cinnamaldehyde]
EC50 (mouse TRPA1 [1]; control (no compound 18)): 50 µM | EC50 (mouse TRPA1 [1]; with 25 μM compound 18): 220 µM

Compound: CC(C)(CCC(C)(C)NCc1ccccc1O)NCc1ccccc1O [Compound 40, N,N′-Bis-(2-hydroxybenzyl)-2,5-diamino-2,5-dimethylhexane]
CFA-induced mechanical hyperalgesia [3]: very similar results | BK-induced mechanical nociceptive behavior [4]: very similar results | CFA-induced heat hyperalgesia [5]: very similar results | BK-induced heat hyperalgesia [6]: very similar results | effect on activation or activities of the other thermoTRPs [7]: little or no effect | inhibition of TRPA1 activation or function (TRPA1 [8]): specifically inhibit TRPA1 activation or function; also recorded: blocks TRPA1

Compound: [Gd+3] [Gd3+, Gadolinium]
block of TRPA1 currents in response to negative pressure (mouse TRPA1 [2]; 10 μM Gd3+, -100 mmHg): completely and reversibly blocked | block of TRPA1 currents in response to hyperosmolarity (mouse TRPA1 [2]; 10 μM Gd3+, 450 mOsm): completely blocks | block of TRPA1 currents in response to hyperosmolarity (mouse TRPA1 [2]; 10 μM Gd3+, 450 mOsm, listed as Gd^3+): completely and reversibly blocked

More lines, main results first:

block of current activation of TRPA1 upon (−) pressure in CHO cells (mouse TRPA1 [2]; 2 mM camphor, −100 mmHg): completely block
Compound: CC12CCC(CC1=O)C2(C)C (stereo not shown) [camphor]
block of current response of DRG neurons to (−) pressure (cultured rat DRG neurons): completely blocks; also recorded: fully inhibited

block of mechanosensitive TRPA1 currents upon hyperosmolarity (mouse TRPA1 [2]; 5 μM ruthenium red, 450 mOsm): completely blocked | block of mechanosensitive TRPA1 currents upon (−) pressure (mouse TRPA1 [2]; 5 μM ruthenium red, -100 mmHg): completely blocked
Compound: N.N.N.N.N.N.N.N.N.N.N.N.N.N.[Cl-].[Cl-].[Cl-].[Cl-].[Cl-].[Cl-].[O-2].[O-2].[Ru+3].[Ru+3].[Ru+4] [ruthenium red]

block of cinnamaldehyde-induced currents in TRPA1-expressing CHO cells (mTRPA1; 10 μM FM1-43): able to block | cells in which an inhibition of the current was observed (mTRPA1; 10 μM FM1-43 with 100 μM cinnamaldehyde, −80 mV): 7/8 | block in current, on average (mTRPA1; 10 μM FM1-43 with 100 μM cinnamaldehyde, average stated for mTRPA1 and hTRPA1 cells together): 50% | cells in which an inhibition of the current was observed (TRPA1 [9]): 3/4
Compound: CCCCN(CCCC)c1ccc(/C=C/c2cc[n+](CCC[N+](CC)(CC)CC)cc2)cc1.[Br-].[Br-] [FM1-43]
